Data reported in patent US20130315843A1, “COMPOSITION FOR REDUCTION OF TRPA1 AND TRPV1 SENSATIONS” (priority 2012, published 2013).
Counter-ions that a name gives are not always drawn. Like-named read-outs stand apart in the source and are kept apart here.

Columns and labels:
[1] = biological target: T1, human TRPA1 (Homo sapiens, UniProt O75762); assay: FLIPR Ca2+ assay, reduction of hydrogen peroxide activation of TRPA1; type: cell-based; set-up: expressed in transfected cells
Experimental: After centrifugation, a pellet of cells was formed in the bottom of the tube separating them from the supernatant solution.
The pelleted cells were re-suspended in 10 ml assay buffer and 90 μl aliquots (˜50,000 cells) per well delivered to a 96-well assay plate containing 10 μl of test compounds ([…]) or buffer control and incubated at room temperature for 30 minutes.

[2] = biological target: T1, human TRPA1; assay: FLIPR Ca2+ assay, block of AITC activation of TRPA1; type: cell-based; set-up: expressed in transfected cells
Experimental: Intracellular Ca^++ levels were measured using cell based assays as described for EXAMPLES 1, 2, and 3.

[3] = biological target: T1, human TRPA1; assay: FLIPR Ca2+ assay, reduction of L-Menthol activation of TRPA1; settings: 100 μM antagonist vs 1 mM L-Menthol
Experimental: In order to determine whether TRPA1 is activated, the intracellular calcium ion (Ca^2+) level from transfected cells with the TRPA1 receptor gene was measured. HEK-2 cells stably transfected with human TRPA1 were grown in 15 ml growth medium [high glucose DMEM (Dulbecco's Modification of Eagle's Medium) supplemented with 10% FBS (fetal bovine serum), 100 μg/ml Penicillin/streptomycin, 100 μg/ml G418] in a 75 Cm^2 flask for 3 days at 37° C. in a mammalian cell culture incubator set at 5% CO2. Cells were detached with addition of 10 ml of PBS (phosphate buffered saline) by hand shaking gently and transferred to a 50 ml tube and centrifuged at 850 rpm for 3 minutes to remove PBS. After centrifugation, a pellet of cells was formed in the bottom of the tube separating them from the supernatant solution. […] Fluo-4 is a fluorescent dye used for quantifying cellular Ca^2+ concentrations in the 100 nM to 1 μM range.
The pelleted cells were re-suspended in 10 ml assay buffer and 90 μl aliquots (˜50,000 cells) per well delivered to a 96-well assay plate containing 10 μl of test compounds (1 mM in assay buffer, final concentration 100 μM) or buffer control and incubated at room temperature for 30 minutes. After 30 minutes, the plate was placed into a fluorometric imaging plate reader (FLIPR384 from Molecular Devices) and basal fluorescence recorded (excitation wave length 488 nm and emission wave length 510 nm). Then 20 μl of the molecule being tested as a TRPA1 antagonist was added and fluorescence recorded. For determining the direct effect of test compounds on TRPA1, fluorescence was measured immediately after addition of each compound.
To determine if a compound was an antagonist or a desensitizer the direct effect of a test compound was determined. For determining the direct effect of test compounds on TRPA1 receptor activation, 100 μl aliquots (˜50,000 cells) of cells prepared as described above were delivered to a 96-well assay plate and basal fluorescence recorded as noted above. Then 20 μl of the compound being tested as a TRPA1 activator was added and fluorescence recorded. If any increase in fluorescence over background was noted, then the compound was considered an agonist.

[4] = biological target: T2, human TRPV1 (Homo sapiens, UniProt Q8NER1); assay: FLIPR Ca2+ assay, reduction of L-Menthol activation of TRPV1; settings: for Average Ca2+ Counts / % Reduction of L-Menthol TRPV1 Activation: antagonist 100 μM against 1 mM L-Menthol; for inhibition at 100 µM: read-out: % Reduction of L-Menthol TRPV1 Activation
[5] = biological target: T2, human TRPV1; assay: FLIPR Ca2+ assay, reduction of hydrogen peroxide activation of TRPV1; type: cell-based; set-up: expressed in transfected cells; settings: antagonist 100 μM against 500 μM hydrogen peroxide
Experimental: Cells were detached with addition of 10 ml of PBS (phosphate buffered saline) by hand shaking gently. Cells were transferred to a 50 ml tube and centrifuged at 850 rpm for 3 minutes to remove PBS.
The pelleted cells were re-suspended in 10 ml assay buffer and 90 μl aliquots (˜50,000 cells) per well delivered to a 96-well assay plate containing 10 μl of test compounds (1 mM in assay buffer, […]) or buffer control and incubated at room temperature for 30 minutes.

[6] = 100 μM antagonist vs 500 μM hydrogen peroxide
[7] = compound 100 μM against 200 μM hydrogen peroxide, Sets 1-4
[8] = compound 100 μM against 200 μM hydrogen peroxide, Sets 1-4, read-out: % Reduction of Hydrogen Peroxide TRPA1 Activation
[9] = 400 μM antagonist vs 500 μM hydrogen peroxide

T1 sequence (O75762 whole entry): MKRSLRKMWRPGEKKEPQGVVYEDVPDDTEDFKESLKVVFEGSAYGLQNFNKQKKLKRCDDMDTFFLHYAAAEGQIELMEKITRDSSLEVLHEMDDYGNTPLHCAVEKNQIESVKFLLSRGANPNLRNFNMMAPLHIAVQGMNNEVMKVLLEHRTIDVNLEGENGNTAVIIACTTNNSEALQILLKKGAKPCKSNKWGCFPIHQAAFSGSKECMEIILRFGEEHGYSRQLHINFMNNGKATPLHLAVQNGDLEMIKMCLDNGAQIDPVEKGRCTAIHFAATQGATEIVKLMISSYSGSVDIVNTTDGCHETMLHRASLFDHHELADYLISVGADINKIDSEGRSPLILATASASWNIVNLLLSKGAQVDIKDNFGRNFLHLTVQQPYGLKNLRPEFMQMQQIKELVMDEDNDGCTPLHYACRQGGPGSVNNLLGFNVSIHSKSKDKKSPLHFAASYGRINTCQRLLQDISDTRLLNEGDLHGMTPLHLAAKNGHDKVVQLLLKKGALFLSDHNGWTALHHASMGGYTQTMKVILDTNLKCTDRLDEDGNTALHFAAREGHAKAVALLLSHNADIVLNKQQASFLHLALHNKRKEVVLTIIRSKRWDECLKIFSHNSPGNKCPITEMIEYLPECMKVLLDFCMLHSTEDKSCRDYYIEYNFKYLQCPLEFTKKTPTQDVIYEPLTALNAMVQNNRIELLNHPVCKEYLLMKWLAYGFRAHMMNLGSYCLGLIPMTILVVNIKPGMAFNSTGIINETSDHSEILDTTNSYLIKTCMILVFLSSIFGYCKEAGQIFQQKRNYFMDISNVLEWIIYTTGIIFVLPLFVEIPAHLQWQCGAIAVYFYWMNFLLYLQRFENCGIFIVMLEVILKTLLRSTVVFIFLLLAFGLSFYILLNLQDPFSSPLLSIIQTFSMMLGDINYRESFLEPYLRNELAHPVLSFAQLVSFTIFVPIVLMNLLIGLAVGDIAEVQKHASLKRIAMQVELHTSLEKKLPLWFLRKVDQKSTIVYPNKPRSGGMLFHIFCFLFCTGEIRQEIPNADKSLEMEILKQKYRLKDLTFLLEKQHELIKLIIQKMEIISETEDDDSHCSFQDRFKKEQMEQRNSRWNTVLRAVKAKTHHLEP
T2 sequence (Q8NER1 whole entry): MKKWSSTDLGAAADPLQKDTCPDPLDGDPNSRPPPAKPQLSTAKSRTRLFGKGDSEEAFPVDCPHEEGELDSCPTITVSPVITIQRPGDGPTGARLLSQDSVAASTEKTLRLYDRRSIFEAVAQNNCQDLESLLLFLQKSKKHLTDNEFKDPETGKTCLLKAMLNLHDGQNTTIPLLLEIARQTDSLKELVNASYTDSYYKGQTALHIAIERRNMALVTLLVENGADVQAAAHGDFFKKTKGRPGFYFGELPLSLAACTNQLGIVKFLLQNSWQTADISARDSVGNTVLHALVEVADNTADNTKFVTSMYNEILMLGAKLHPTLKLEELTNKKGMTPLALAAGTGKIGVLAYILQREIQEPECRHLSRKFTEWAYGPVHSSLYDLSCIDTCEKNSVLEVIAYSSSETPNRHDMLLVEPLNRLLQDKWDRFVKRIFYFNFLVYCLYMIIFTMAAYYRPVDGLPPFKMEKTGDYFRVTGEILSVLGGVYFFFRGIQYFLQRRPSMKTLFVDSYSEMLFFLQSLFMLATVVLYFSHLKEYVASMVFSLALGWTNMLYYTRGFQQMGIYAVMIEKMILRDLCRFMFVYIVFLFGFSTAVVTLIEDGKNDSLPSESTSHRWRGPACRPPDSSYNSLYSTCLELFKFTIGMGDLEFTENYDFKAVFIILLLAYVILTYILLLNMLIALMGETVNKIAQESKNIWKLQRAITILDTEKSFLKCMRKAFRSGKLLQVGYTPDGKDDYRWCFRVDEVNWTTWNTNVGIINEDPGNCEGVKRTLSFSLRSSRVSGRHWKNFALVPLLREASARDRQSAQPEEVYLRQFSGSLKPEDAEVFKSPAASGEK

| Compound | Block of L-Menthol activation of TRPA1 [3] | Average Ca2+ Counts [4] [Counts] | inhibition at 100 µM [4] [%] | further results |
| --- | --- | --- | --- | --- |
| CC(C)C=C(C=O)c1ccccc1 (single isomer, unassigned) [4-Methyl-2-phenyl-2 Pentenal (mixture of cis and trans isomers)] |  |  |  | Block of hydrogen peroxide activation of TRPA1 [1]: Block both H2O2 and AITC on TRPA1; Block of AITC activation of TRPA1 ([2]; 400 μM antagonist): Block both H2O2 and AITC on TRPA1 |
| CC(S)CS (stereo not shown) [1,2-propanedithiol] |  |  |  | Block of hydrogen peroxide activation of TRPA1 [1, 6]: Block both H2O2 and AITC on TRPA1; % Reduction of Hydrogen Peroxide TRPA1 Activation [1, 7]: 68.8%; Average Ca++ Counts [1, 7]: 2194.5 Counts; Block of AITC activation of TRPA1 ([2]; 100 μM antagonist): Block both H2O2 and AITC on TRPA1 |
| Cc1ccc(C=O)c(O)c1 [2-hydroxy-4-methylbenzaldehyde] |  |  |  | Block of hydrogen peroxide activation of TRPA1 [1, 6]: Block both H2O2 and AITC on TRPA1; Average Ca++ Counts [1, 7]: 3429.0 Counts; inhibition at 100 µM [1, 8]: 51.3%; Block of AITC activation of TRPA1 ([2]; 100 μM antagonist): Block both H2O2 and AITC on TRPA1 |
| COc1nccnc1CC(C)C [2-isobutyl-3-methoxypyrazine] | BLOCK BOTH MENTHOL AND H2O2 ON TRPA1 | 4020.0 | 37.2 | Block of hydrogen peroxide activation of TRPA1 [1, 6]: BLOCK BOTH MENTHOL AND H2O2 ON TRPA1; Average Ca++ Counts [1, 7]: 3067.5 Counts; inhibition at 100 µM [1, 8]: 56.4% |
| C=CCc1cc(OC)c(O)c(OC)c1 [4-Allyl-2,6-dimethoxyphenol] |  |  |  | Block of hydrogen peroxide activation of TRPA1 [1, 9]: Block both H2O2 and AITC on TRPA1; inhibition at 400 µM ([1]; antagonist 400 μM against 200 μM hydrogen peroxide, read-out: % Reduction of Hydrogen Peroxide TRPA1 Activation): 54%; Block of AITC activation of TRPA1 ([2]; 400 μM antagonist): Block both H2O2 and AITC on TRPA1 |
| CCCC(=O)OCc1ccc(OC)cc1 [Anisyl Butyrate] |  |  |  | Block of hydrogen peroxide activation of TRPA1 [1, 9]: Block both H2O2 and AITC on TRPA1; % Reduction of Hydrogen Peroxide TRPA1 Activation ([1]; antagonist 400 μM against 200 μM hydrogen peroxide): 54%; Block of AITC activation of TRPA1 ([2]; 400 μM antagonist): Block both H2O2 and AITC on TRPA1 |
| CC1=CC(=O)[C@@H](C(C)C)CC1 [L-Piperitone] |  |  |  | % Reduction of Hydrogen Peroxide TRPV1 Activation [5]: 58% |
| C=CCOC(=O)CCC1CCCCC1 [allyl cyclohexanepropionate] | BLOCK BOTH MENTHOL AND H2O2 ON TRPA1 | 4895.5 | 23.5 | Block of hydrogen peroxide activation of TRPA1 [1, 6]: BLOCK BOTH MENTHOL AND H2O2 ON TRPA1; Average Ca++ Counts [1, 7]: 3443.0 Counts; inhibition at 100 µM [1, 8]: 51.1% |
| c1ccc2scnc2c1 [benzothiazole] |  |  |  | Average Ca++ Counts [1, 7]: 5513.0 Counts; inhibition at 100 µM [1, 8]: 48%; Block of AITC activation of TRPA1 ([2]; 100 μM antagonist): Block both H2O2 and AITC on TRPA1 |
| O=C(C=Cc1ccccc1)OCc1ccccc1 [benzyl cinnamate] |  |  |  | Block of hydrogen peroxide activation of TRPA1 [1, 6]: Block both H2O2 and AITC on TRPA1; Average Ca++ Counts [1, 7]: 4828.5 Counts; inhibition at 100 µM [1, 8]: 54.4%; Block of AITC activation of TRPA1 ([2]; 100 μM antagonist): Block both H2O2 and AITC on TRPA1 |
| CCOC(=O)C1OC1c1ccccc1 (stereo not shown) [ethyl 3-phenylglycidate] | BLOCK ONLY MENTHOL/TRPA1 | 1987.0 |  | % Reduction of L-Menthol TRPV1 Activation [4]: 50.8% |
| C=CCCCC(=O)OCC [ethyl 5-hexenoate] | BLOCK ONLY MENTHOL/TRPA1 | 1084.0 | 41.8 |  |
| CCOC(=O)CC1(C)OCCO1 [ethyl acetoacetate ethylene ketal] |  |  |  | Block of hydrogen peroxide activation of TRPA1 [1, 6]: Block both H2O2 and AITC on TRPA1; Average Ca++ Counts [1, 7]: 3298.5 Counts; inhibition at 100 µM [1, 8]: 53.2%; Block of AITC activation of TRPA1 ([2]; 100 μM antagonist): Block both H2O2 and AITC on TRPA1 |
| CCCCCC(=O)OCC [ethyl hexanoate] | BLOCK ONLY MENTHOL/TRPA1 | 3655.5 | 42.9 |  |
| CCCCCCCC/C=C\CCCCCCCC(=O)OCC [ethyl oleate] | BLOCK ONLY MENTHOL/TRPA1 | 1431.3 | 25.7 |  |
| CCOC(=O)CC [ethyl propionate] | BLOCK ONLY MENTHOL/TRPA1 | 2712.0 | 32.8 |  |
| CCC/C=C/C(=O)OCC [ethyl trans-2-hexenoate] | BLOCK ONLY MENTHOL/TRPA1 | 1102.7 | 40.9 |  |
| CCCCC/C=C/CCC(=O)OCC [ethyl trans-4-decenoate] | BLOCK ONLY MENTHOL/TRPA1 | 1454.3 | 24.6 |  |
| COc1cc(/C=C/C(=O)O)ccc1O [ferulic acid] | BLOCK ONLY MENTHOL/TRPA1 | 1242.0 | 34.5 |  |
| CCCCCCCCCCCCCCCCOC(=O)C(C)O (stereo not shown) [hexadecyl lactate] | BLOCK ONLY MENTHOL/TRPA1 | 1047.0 | 43.5 |  |

| Compound | Block of L-Menthol activation of TRPA1 [3] | Average Ca2+ Counts [4] [Counts] | inhibition at 100 µM [4] [%] | further results |
| --- | --- | --- | --- | --- |
| CCCOC(=O)CCCCC(=O)OCCC [hexanedioic acid, dipropyl ester] | BLOCK ONLY MENTHOL/TRPA1 | 2964.0 | 26.6 |  |
| CCCCCC(=O)OCC(C)C [isobutyl hexanoate] | BLOCK ONLY MENTHOL/TRPA1 | 3443.5 | 25.8 |  |
| CC(C)CCOC=O [isopentyl formate] | BLOCK ONLY MENTHOL/TRPA1 | 1451.7 | 24.8 |  |
| C/C=C(\C)C(=O)OC(C)C [isopropyl tiglate] | BLOCK ONLY MENTHOL/TRPA1 | 4497.5 | 29.7 |  |
| COC(=O)c1ccccc1NC(C)=O [methyl 2-(acetylamino)benzoate] | BLOCK ONLY MENTHOL/TRPA1 | 1178.3 | 37.4 |  |
| CCCC(C)C(=O)OC (stereo not shown) [methyl 2-methylpentanoate] | BLOCK ONLY MENTHOL/TRPA1 | 1529.3 | 21.2 |  |
| COC(=O)CCSC [methyl 3-(methylthio)propionate] | BLOCK ONLY MENTHOL/TRPA1 | 998.7 | 45.7 |  |
| CCCCCCCCSC [methyl n-octyl sulfide] | BLOCK ONLY MENTHOL/TRPA1 | 1120.3 | 40.1 |  |
| COC(=O)c1cccnc1 [methyl nicotinate] | BLOCK ONLY MENTHOL/TRPA1 | 1483.7 | 23.3 |  |
| COc1ccccc1C [o-methylanisole] | BLOCK ONLY MENTHOL/TRPA1 | 1107.3 | 40.7 |  |
| CCCCCCCC=O [octanal] | BLOCK ONLY MENTHOL/TRPA1 | 2759.0 | 31.6 |  |
| C1CNCCN1 [piperazine] | BLOCK BOTH MENTHOL AND H2O2 ON TRPA1 | 3405.0 | 46.8 | Block of hydrogen peroxide activation of TRPA1 [1, 6]: BLOCK BOTH MENTHOL AND H2O2 ON TRPA1; Average Ca++ Counts [1, 7]: 2815.5 Counts; inhibition at 100 µM [1, 8]: 60% |
| CCC/C=C/COC(=O)CC [propionic acid trans-2-hexen-1-yl ester] | BLOCK ONLY MENTHOL/TRPA1 | 1128.3 | 39.7 |  |
| CCCOC(=O)C(C)=O [propyl pyruvate] | BLOCK ONLY MENTHOL/TRPA1 | 2386.5 | 40.9 |  |
| CC(=O)C=O [pyruvic aldehyde] | BLOCK ONLY MENTHOL/TRPA1 | 1504.0 |  | % Reduction of L-Menthol TRPV1 Activation [4]: 22.3% |
| C=C[C@H]1C[N@@]2CC[C@H]1C[C@H]2[C@H](O)c1ccnc2ccc(OC)cc12 [quinine hydrochloride dihydrate] | BLOCK ONLY MENTHOL/TRPA1 | 1505.3 | 22.3 |  |
| CCC(C)SSC(C)CC (stereo not shown) [sec-butyl disulfide] | BLOCK ONLY MENTHOL/TRPA1 | 3652.0 | 21.3 |  |
| CC(=O)OCC1CCCO1 (stereo not shown) [tetrahydrofurfuryl acetate] | BLOCK ONLY MENTHOL/TRPA1 | 1269.3 | 33.2 |  |
| CCC/C=C/COC(C)=O [trans-2-hexenyl acetate] | BLOCK ONLY MENTHOL/TRPA1 | 1119.0 | 40.2 |  |
| iron naphthenate | BLOCK ONLY MENTHOL/TRPA1 | 2748.5 |  | % Reduction of L-Menthol TRPV1 Activation [4]: 31.9% |
